Our source for the IC50 values is patent US20250326741A1, “GLUCOSE-DEPENDENT INSULINOTROPIC POLYPEPTIDE RECEPTOR ANTAGONISTS AND USES THEREOF” (Pfizer Inc., priority 2024, published 2025).

pIC50: −log10 of the molar value.

In this assay the target is T1, human Glucose-dependent Insulinotropic Polypeptide Receptor (hGIPR) (Homo sapiens, UniProt P48546).
T1 sequence (P48546 22-466): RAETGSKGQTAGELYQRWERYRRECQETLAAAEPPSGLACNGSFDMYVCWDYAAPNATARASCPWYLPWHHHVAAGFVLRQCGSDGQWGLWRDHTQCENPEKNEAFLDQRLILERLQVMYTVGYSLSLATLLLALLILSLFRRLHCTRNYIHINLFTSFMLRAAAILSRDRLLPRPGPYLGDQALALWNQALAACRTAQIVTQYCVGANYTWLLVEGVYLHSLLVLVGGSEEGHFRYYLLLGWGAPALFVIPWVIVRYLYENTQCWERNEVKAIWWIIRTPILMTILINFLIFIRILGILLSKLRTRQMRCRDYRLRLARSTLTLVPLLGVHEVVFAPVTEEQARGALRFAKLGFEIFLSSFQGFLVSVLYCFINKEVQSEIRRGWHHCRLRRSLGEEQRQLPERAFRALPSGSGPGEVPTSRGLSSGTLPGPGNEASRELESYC
Put plainly: Functional in vitro GIPR antagonist potency assay (intracellular cAMP, HTRF, hGIP stimulation at EC80). It is filed as cell-based. The note with it: geometric mean; CHO-K1 cells stably expressing human GIPR, cAMP after hGIP stimulation at EC80. The procedure:
Example AA. Functional In Vitro GIPR Antagonist Potency Assay
The functional in vitro antagonist potency for test compounds was determined by monitoring intracellular cyclic adenosine monophosphate (cAMP) levels in Chinese hamster ovary (CHO)—K1 cells stably expressing the human Glucose-dependent Insulinotropic Polypeptide Receptor (hGIPR). Following agonist activation, hGIPR associates with the G-protein complex causing the Gas subunit to exchange bound guanosine diphosphate (GDP) for guanosine triphosphate (GTP), followed by dissociation of the Gas-GTP complex. The activated Gas subunit can couple to downstream effectors to regulate the levels of second messengers or cAMP within the cell. Thereby, determination of intracellular cAMP levels allows for pharmacological characterization. Intracellular cAMP levels are quantitated using a homogenous assay utilizing the Homogeneous Time Resolved Fluorescence (HTRF) technology from Perkin Elmer. The method is a competitive immunoassay between native cAMP produced by the cells and cAMP labelled with the acceptor dye, d2. The two entities compete for binding to a monoclonal anti-cAMP antibody labeled with cryptate. The specific signal is inversely proportional to the concentration of cAMP in the cells.
Test compounds were solubilized to a concentration of 30 mM in 100% dimethyl sulfoxide (DMSO). An 11-point dilution series using 1 in 3.162-fold serial dilutions was created in 100% DMSO with a top concentration of 8 mM. The serially diluted compound was spotted with an Echo Acoustic liquid handler (Beckman Coulter) into a 384-well assay plate (Corning, Cat No. 3824) at 50 nL/well with duplicate points at each concentration, at a 200× final assay concentration (FAC). The final compound concentration range in the assay was 40 μM to […], with a final DMSO concentration of 0.5%.
Frozen assay-ready vials (at 1×10^7 cells/vial) of CHO-K1 cells stably expressing the Gs-coupled human GIPR receptor (Eurofins, DiscoverX, Cat No. 95-0146C2) were thawed, counted, and resuspended in assay buffer consisting of Hank's Balanced Salt Solution (HBSS, Lonza Cat No. 10-527) containing 20 mM (4-(2-hydroxyethyl)-1-piperazineethanesulfonic acid (HEPES, Lonza, Cat No. 17-737E), 0.1% bovine serum albumin (BSA, Sigma, Cat No. A7979), and 200 μM 3-isobutyl-1-methylxanthine (IBMX, Sigma, Cat No. 15879) at a density of 4×10^5 cells/mL. Cells were added to assay plate (5 μL/well of 4×10^5 cells/mL stock for 2,000 cells/well final) containing 50 nL of 200×FAC test compound, and incubated at 37° C. (95% O2: 5% CO2) for 2 hours, with micro-clime lids (Labcyte, Cat No. LLS-0310). Following the 2-hour cell and compound incubation, a stimulation mix comprised of hGIPR agonist human glucose-dependent insulinotropic polypeptide (hGIP, full length, Sigma Cat No. G2269) in assay buffer/0.1% DMSO was added to the assay plate (5 μL/well) at an estimated EC80 FAC (based on previous hGIP agonist curves) and incubated for another 30 minutes with micro-clime lids at 37° C. (95% O2: 5% CO2), after which intracellular cAMP levels were quantified as per Perkin Elmer's protocol (5 μL of d2 and then 5 μL cryptate, incubated for 1 hour at room temperature). Emission spectra of samples were measured on a Pherastar plate reader (BMG Labtech Inc) using a HTRF protocol (excitation, 320 nm; emission, 665 nm/620 nm).
(95% O2: 5% CO2), with a micro-clime lid. Following the 2-hour cell and DMSO incubation, a hGIP concentration response curve at 2×FAC (12-point curve using 1 in 3 serial dilutions, with triplicate points at each concentration, 100 nM final top concentration) in assay buffer/1% DMSO was added (5 μL/well) and incubated for a further 30 minutes with a micro-clime lid at 37° C. (95% O2: 5% CO2), after which intracellular cAMP levels were quantified and samples measured as described previously. Experiments passed quality control if the agonist concentration used for stimulation fell between the on-the-day EC50-EC90. […]
`Cc1cc(-n2ccc(NC(=O)[C@H]3CCCN3C(=O)Nc3cc(F)c(C(F)(F)F)c(F)c3)n2)ccc1C(=O)O` [Example 51, 4-{3-[(1-{[3,5-difluoro-4-(trifluoromethyl)phenyl]carbamoyl}-D-prolyl)amino]-1H-pyrazol-1-yl}-2-methylbenzoic acid] gave a pIC50 of 7.46.
The result for `Cc1cc(NC(=O)N2CCC[C@@H]2C(=O)Nc2ccn(-c3ccc(C(=O)O)cc3)n2)ccc1C(C)C` [Example 26, 4-{3-[(1-{[3-methyl-4-(propan-2-yl)phenyl]carbamoyl}-D-prolyl)amino]-1H-pyrazol-1-yl}benzoic acid] reads 7.19.
For `Cc1cc(-n2ccc(NC(=O)[C@H]3CCCN3C(=O)Nc3ccc(C4CCC4)cc3)n2)ccc1C(=O)O` [Example 42, 4-[3-({1-[(4-cyclobutylphenyl)carbamoyl]-D-prolyl}amino)-1H-pyrazol-1-yl]-2-methylbenzoic acid], the pIC50 is 7.92.
With `Cc1cc(-n2ccc(NC(=O)[C@H]3CCCN3C(=O)CCc3ccc(C(F)(F)F)cc3)n2)ccc1C(=O)O` [Example 18, 2-Methyl-4-{3-[(1-{3-[4-(trifluoromethyl)phenyl]propanoyl}-D-prolyl)amino]-1H-pyrazol-1-yl}benzoic Acid] the figure was 6.60; with `Cc1cc(-n2ccc(NC(=O)[C@H]3CCCN3C(=O)Nc3ccc(C(C)C)c(C)c3)n2)ccc1C(N)=O` [Example 15, (2R)—N^2-[1-(4-Carbamoyl-3-methylphenyl)-1H-pyrazol-3-yl]-N^1-[3-methyl-4-(propan-2-yl)phenyl]pyrrolidine-1,2-dicarboxamide], 7.39; with `Cc1cc(-n2ccc(NC(=O)[C@H]3CCCN3C(=O)NCc3ccc(C4CC4)cc3)n2)ccc1C(=O)O` [Example 47, 4-{3-[(1-{[(4-cyclopropylphenyl)methyl]carbamoyl}-D-prolyl)amino]-1H-pyrazol-1-yl}-2-methylbenzoic acid], 6.66.
With `Cc1cc(-n2ccc(NC(=O)[C@H]3CCCN3C(=O)NCc3ccc(C(F)(F)F)c(F)c3)n2)ccc1C(=O)O` [Example 48, 4-(3-{[1-{{[3-fluoro-4-(trifluoromethyl)phenyl]methyl}carbamoyl)-D-prolyl]amino}-1H-pyrazol-1-yl)-2-methylbenzoic acid] the figure was 6.82.
With `Cc1cc(-n2ccc(NC(=O)[C@H]3CCCN3C(=O)Nc3ccc(OC(F)(F)F)cc3)n2)ccc1C(N)=O` [Example 41] the figure was 7.01; with `Cc1cc(-n2ccc(NC(=O)[C@H]3CCCN3C(=O)CNc3ccc(C(F)(F)F)cc3)n2)ccc1C(=O)O` [Example 19, N-[4-(Trifluoromethyl)phenyl]glycyl-N-[1-(4-carboxy-3-methylphenyl)-1H-pyrazol-3-yl]-D-prolinamide], 7.11; with `Cc1cc(-n2ccc(NC(=O)[C@H]3CCCN3C(=O)CNc3ccc(C(F)(F)F)cc3)n2)ccc1C(N)=O` [Example 61, N-[4-(trifluoromethyl)phenyl]glycyl-N-[1-(4-carbamoyl-3-methylphenyl)-1H-pyrazol-3-yl]-D-prolinamide], 6.35.
Take `Cc1cc(NC(=O)N2CCC[C@@H]2C(=O)Nc2ccn(-c3cc(F)c(O)c(F)c3)n2)ccc1C(C)C` [Example 55]: the pIC50 is 8.42.
With `Cc1cc(NC(=O)N2CCC[C@@H]2C(=O)Nc2ccn(-c3ccc(C(=O)O)cc3)n2)ncc1C(C)C` [Example 30, 4-{3-[(1-{[4-methyl-5-(propan-2-yl)pyridin-2-yl]carbamoyl}-D-prolyl)amino]-1H-pyrazol-1-yl}benzoic acid] the figure was 6.60; with `Cc1cc(-n2ccc(NC(=O)[C@H]3CCCN3C(=O)Nc3ccc(OC(F)(F)F)cc3)n2)c(F)cc1C(=O)O` [Example 59, 5-Fluoro-2-methyl-4-{3-[(1-{[4-(trifluoromethoxy)phenyl]carbamoyl}-D-prolyl)amino]-1H-pyrazol-1-yl}benzoic Acid], 7.96.
With `O=C(Nc1ccn(-c2cc(F)c(O)c(F)c2)n1)[C@H]1CCCN1C(=O)Nc1ccc(C(F)(F)F)cc1` [Example 54] the figure was 7.92.

The term pIC50 denotes −log10 of the IC50, conventionally taken in molar units. A high value points to a small IC50.
